## CC1CCc2cc(F)cc3c(=O)c(C(=O)O)cn1c23 (stereo not given)
In ethanol, 301.9 K
  solubility (mole fraction): 0.00015
In ethanol, 309.9 K
  solubility (mole fraction): 0.00017
In ethanol, 315.2 K
  solubility (mole fraction): 0.00023
In ethanol, 320.7 K
  solubility (mole fraction): 0.00034
In ethanol, 328.7 K
  solubility (mole fraction): 0.00053
In ethanol, 331.7 K
  solubility (mole fraction): 0.00062
In ethanol, 335.5 K
  solubility (mole fraction): 0.00075
In ethanol, 339.1 K
  solubility (mole fraction): 0.00085
In ethanol, 340.5 K
  solubility (mole fraction): 0.00091
In ethanol, 342.1 K
  solubility (mole fraction): 0.00096
In ethanol, 344.2 K
  solubility (mole fraction): 0.00114
In ethanol, 345.5 K
  solubility (mole fraction): 0.0012
In water, 298.2 K
  solubility (mole fraction): 2.1e-05
In water, 303.2 K
  solubility (mole fraction): 2.3e-05
In water, 308.2 K
  solubility (mole fraction): 2.6e-05
In water, 313.2 K
  solubility (mole fraction): 2.8e-05
In water, 318.2 K
  solubility (mole fraction): 3.2e-05
In water, 323.2 K
  solubility (mole fraction): 3.8e-05

## CCn1cc(C(=O)O)c(=O)c2cc(F)c(N3CCNCC3)cc21
In water, 303.2 K
  solubility (mole fraction): 7.3e-06
In water, 308.2 K
  solubility (mole fraction): 9.1e-06
In water, 313.2 K
  solubility (mole fraction): 1.12e-05
In water, 318.2 K
  solubility (mole fraction): 1.37e-05
In water, 323.2 K
  solubility (mole fraction): 1.7e-05
In water, 328.2 K
  solubility (mole fraction): 2.05e-05

## CCn1nc(C(=O)O)c(=O)c2cc3c(cc21)OCO3
In ethanol, 300.2 K
  solubility (mole fraction): 5e-05
In ethanol, 303.1 K
  solubility (mole fraction): 6e-05
In ethanol, 311.4 K
  solubility (mole fraction): 8e-05
In ethanol, 315.1 K
  solubility (mole fraction): 0.0001
In ethanol, 319.5 K
  solubility (mole fraction): 0.00011
In ethanol, 321.6 K
  solubility (mole fraction): 0.00013
In ethanol, 325.6 K
  solubility (mole fraction): 0.00015
In ethanol, 329.1 K
  solubility (mole fraction): 0.00018
In ethanol, 334 K
  solubility (mole fraction): 0.0002
In ethanol, 337.2 K
  solubility (mole fraction): 0.00024
In ethanol, 339.8 K
  solubility (mole fraction): 0.00028
In ethanol, 342.8 K
  solubility (mole fraction): 0.00031
In ethanol, 345.6 K
  solubility (mole fraction): 0.00037
In water, 298.2 K
  solubility (mole fraction): 4.2e-06
In water, 303.2 K
  solubility (mole fraction): 5e-06
In water, 308.2 K
  solubility (mole fraction): 5.4e-06
In water, 313.2 K
  solubility (mole fraction): 5.9e-06
In water, 318.2 K
  solubility (mole fraction): 7.1e-06
In water, 323.2 K
  solubility (mole fraction): 9.9e-06

## CCn1cc(C(=O)O)c(=O)c2cc(F)c(N3CCNC(C)C3)c(F)c21.Cl (stereo not given)
In ethanol, 298.2 K
  solubility (mole fraction): 3e-05
In ethanol, 303.2 K
  solubility (mole fraction): 3.2e-05
In ethanol, 308.2 K
  solubility (mole fraction): 3.8e-05
In ethanol, 313.2 K
  solubility (mole fraction): 4.1e-05
In ethanol, 318.2 K
  solubility (mole fraction): 4.4e-05
In ethanol, 323.2 K
  solubility (mole fraction): 5e-05
In water, 296 K
  solubility (mole fraction): 0.00088
In water, 298.2 K
  solubility (mole fraction): 0.0009
In water, 311.7 K
  solubility (mole fraction): 0.00099
In water, 316.3 K
  solubility (mole fraction): 0.00104
In water, 318.9 K
  solubility (mole fraction): 0.0011
In water, 320.5 K
  solubility (mole fraction): 0.00112
In water, 328.3 K
  solubility (mole fraction): 0.00121
In water, 335.9 K
  solubility (mole fraction): 0.00129
In water, 338.7 K
  solubility (mole fraction): 0.00134
In water, 340.7 K
  solubility (mole fraction): 0.00138
In water, 344.2 K
  solubility (mole fraction): 0.00145
